Measurements: ChEMBL document CHEMBL3808315, “Discovery of Pyrazolopyridones as a Novel Class of Gyrase B Inhibitors Using Structure Guided Design” (ACS Med Chem Lett, 2016)
≈ marks a conversion by molar mass, not a printed value.

Columns and labels:
DNA gyrase subunit B = DNA gyrase subunit B (Staphylococcus aureus, UniProt P0A0K8); test: Inhibition of Staphylococcus aureus DNA gyraseB ATPase activity using linear pBR322 DNA substrate incubated for 30 mins by fluorescence polarization assay
Staphylococcus aureus [1] = test: Antibacterial activity against methicillin-susceptible Staphylococcus aureus 42 incubated for 18 to 24 hrs by broth microdilution assay; assay type: functional
Enterococcus faecium = test: Antibacterial activity Enterococcus faecium ATCC 6569 incubated for 18 to 24 hrs by broth microdilution assay; assay type: functional
Streptococcus pneumoniae = test: Antibacterial activity Streptococcus pneumoniae ATCC 6303 incubated for 18 to 24 hrs by broth microdilution assay; assay type: functional
Staphylococcus aureus [2] = test: Antibacterial activity against methicillin-resistant Staphylococcus aureus 1118 incubated for 18 to 24 hrs by broth microdilution assay; assay type: functional
Staphylococcus aureus [3] = test: Antibacterial activity against ciprofloxacin/methicillin-resistant Staphylococcus aureus 1721 incubated for 18 to 24 hrs by broth microdilution assay; assay type: functional
[4] = target: DNA topoisomerase 4 subunit B (Staphylococcus aureus, UniProt P0C1S7); test: Inhibition of Staphylococcus aureus DNA parE ATPase activity incubated for 30 mins by fluorescence polarization assay

| Structure (SMILES) | IC50 (DNA gyrase subunit B) | MIC (Staphylococcus aureus [1]) | also measured |
| --- | --- | --- | --- |
| O=c1ccc2c(-c3cnc(-c4cccnc4)s3)n[nH]c2[nH]1 | 270 nM | > 32 µg/mL |  |
| Cc1cc(=O)[nH]c2[nH]nc(-c3cnc(-c4cccnc4)s3)c12 | 3250 nM |  |  |
| O=c1cc(-c2ccccc2)c2c(-c3cnc(-c4cccnc4)s3)n[nH]c2[nH]1 | 1320 nM |  |  |
| CCCn1c(=O)ccc2c(-c3cnc(-c4ccc(N(C)C)nc4)s3)n[nH]c21 | 15 nM | 0.5 µg/mL (≈ 1.31 µM) |  |
| CCCn1c(=O)ccc2c(-c3ncc(-c4cccnc4)s3)n[nH]c21 | 9 nM | 4 µg/mL (≈ 11.9 µM) |  |
| CCCn1c(=O)ccc2c(-c3nc(C(=O)OC)c(-c4cccnc4)s3)n[nH]c21 | 6 nM | 0.25 µg/mL (≈ 0.632 µM) |  |
| CCCn1c(=O)ccc2c(-c3nc(C(=O)N(C)C)c(-c4cccnc4)s3)n[nH]c21 | 13 nM | 4 µg/mL (≈ 9.79 µM) |  |
| CCCn1c(=O)ccc2c(-c3cnc(-c4ccc(C(C)C)nc4)s3)n[nH]c21 | 23 nM | 1 µg/mL (≈ 2.64 µM) |  |
| CCCn1c(=O)ccc2c(-c3cnc(-c4ccc(C(=O)NCCN(CC)CC)nc4)s3)n[nH]c21 | < 8 nM | 1 µg/mL (≈ 2.09 µM) |  |
| CCCn1c(=O)ccc2c(-c3cncs3)n[nH]c21 | 279 nM | > 32 µg/mL |  |
| Cn1c(=O)ccc2c(-c3cnc(-c4cccnc4)s3)n[nH]c21 | 51 nM | > 32 µg/mL |  |
| CCCn1c(=O)ccc2c(-c3cnc(-c4ccc(C(=O)OC)nc4)s3)n[nH]c21 | 15 nM | 0.5 µg/mL (≈ 1.26 µM) |  |
| O=c1ccc2c(-c3cnc(-c4cccnc4)s3)n[nH]c2n1CCO | 564 nM | > 32 µg/mL |  |
| CCn1c(=O)c(C)cc2c(-c3cnc(-c4cccnc4)s3)n[nH]c21 | 35 nM | 2 µg/mL (≈ 5.93 µM) |  |
| CCCn1c(=O)ccc2c(-c3cnc(-c4ccc(C(=O)N(C)C)nc4)s3)n[nH]c21 | 8 nM | 2 µg/mL (≈ 4.9 µM) |  |
| CCn1c(=O)ccc2c(-c3cnc(-c4cccnc4)s3)n[nH]c21 | 20 nM | 2 µg/mL (≈ 6.18 µM) | MIC (Enterococcus faecium): 4 µg/mL (≈ 12.4 µM); MIC (Streptococcus pneumoniae): 4 µg/mL (≈ 12.4 µM); MIC (Staphylococcus aureus [2]): 2 µg/mL (≈ 6.18 µM); MIC (Staphylococcus aureus [3]): 4 µg/mL (≈ 12.4 µM); IC50 [4]: 746 nM |
| C=CCn1c(=O)ccc2c(-c3cnc(-c4cccnc4)s3)n[nH]c21 | 4 nM | 0.25 µg/mL (≈ 0.745 µM) |  |
| CCCn1c(=O)ccc2c(-c3cnc(-c4ccc(CN5CCN(C)CC5)nc4)s3)n[nH]c21 | 10 nM | 4 µg/mL (≈ 8.9 µM) |  |
| CCCn1c(=O)ccc2c(-c3cnc(-c4ccc(CN(CC)CC)nc4)s3)n[nH]c21 | 9 nM | 4 µg/mL (≈ 9.47 µM) |  |
| CCCn1c(=O)ccc2c(-c3cnc(-c4ccc(CO)nc4)s3)n[nH]c21 | < 8 nM | 0.25 µg/mL (≈ 0.68 µM) |  |
| CCCn1c(=O)ccc2c(-c3cnc(-c4ccc(CN5CCOCC5)nc4)s3)n[nH]c21 | < 8 nM | 0.5 µg/mL (≈ 1.15 µM) |  |
| CCCn1c(=O)ccc2c(-c3cnc(-c4ccc(C)nc4)s3)n[nH]c21 | < 8 nM | 0.25 µg/mL (≈ 0.711 µM) |  |
| CCCn1c(=O)ccc2c(-c3cnc(-c4ccc(C(=O)NCCN5CCOCC5)nc4)s3)n[nH]c21 | 13 nM | 2 µg/mL (≈ 4.05 µM) |  |
| CCCn1c(=O)ccc2c(C3CCN(c4nc(C(=O)O)c(C)s4)CC3)n[nH]c21 | 192 nM | > 32 µg/mL |  |
| CCn1c(=O)c(CO)cc2c(-c3cnc(-c4cccnc4)s3)n[nH]c21 | 202 nM | > 32 µg/mL |  |
| CCCn1c(=O)ccc2c(-c3cnc(-c4ccc(N5CCN(C)CC5)nc4)s3)n[nH]c21 | 8 nM | 2 µg/mL (≈ 4.59 µM) |  |
| CCn1c(=O)c(C(=O)NC)cc2c(-c3cnc(-c4cccnc4)s3)n[nH]c21 | 3350 nM | > 32 µg/mL |  |
| CCCn1c(=O)ccc2c(-c3cnc(-c4cccnc4)s3)n[nH]c21 | 6 nM | 0.06 µg/mL (≈ 0.178 µM) | MIC (Enterococcus faecium): 0.125 µg/mL (≈ 0.37 µM); MIC (Streptococcus pneumoniae): 0.25 µg/mL (≈ 0.741 µM); MIC (Staphylococcus aureus [2]): 0.06 µg/mL (≈ 0.178 µM); MIC (Staphylococcus aureus [3]): 0.06 µg/mL (≈ 0.178 µM); IC50 [4]: 183 nM |
| COc1c(N2C[C@@H]3CCCN[C@@H]3C2)c(F)cc2c(=O)c(C(=O)O)cn(C3CC3)c12 [MOXIFLOXACIN] |  | 0.06 µg/mL (≈ 0.149 µM) |  |
